Tests used:
Experiment in all cases: relative viability (nuclei count vs DMSO), 5 days (fraction); higher = more cells survive
Bexarotene + AZD7762 = compound: C=C(c1ccc(C(=O)O)cc1)c1cc2c(cc1C)C(C)(C)CCC2(C)C [Bexarotene] + NC(=O)Nc1cc(-c2cccc(F)c2)sc1C(=O)N[C@H]1CCCNC1 [AZD7762] (partner 0.2 µM)
Outline: (§1)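 Relative viability equals treated-well nuclei counts divided by vehicle-well nuclei counts. Counts came from 4× images of lung cancer cell lines grown in 1536-well plates for 5 days after pin-tool dosing on the day after seeding. Dosing used one drug alone or a fixed anchor-drug dose plus five library-drug doses (not always all listed) in √10 steps, and values are medians of duplicate plates.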

Bexarotene + Tozasertib = compound: C=C(c1ccc(C(=O)O)cc1)c1cc2c(cc1C)C(C)(C)CCC2(C)C [Bexarotene] + Cc1cc(Nc2cc(N3CCN(C)CC3)nc(Sc3ccc(NC(=O)C4CC4)cc3)n2)n[nH]1 [Tozasertib] (partner 0.1 µM)
Outline: as §1

Bexarotene + Bortezomib = compound: C=C(c1ccc(C(=O)O)cc1)c1cc2c(cc1C)C(C)(C)CCC2(C)C [Bexarotene] + CC(C)C[C@H](NC(=O)[C@H](Cc1ccccc1)NC(=O)c1cnccn1)B(O)O [Bortezomib] (partner 0.002 µM)
Outline: as §1

Bexarotene + Decitabine = compound: C=C(c1ccc(C(=O)O)cc1)c1cc2c(cc1C)C(C)(C)CCC2(C)C [Bexarotene] + Nc1ncn([C@H]2C[C@H](O)[C@@H](CO)O2)c(=O)n1 [Decitabine] (partner 2 µM)
Outline: as §1

Cell Line | relative viability (Bexarotene + AZD7762; first compound 0.08 µM) | relative viability (Bexarotene + AZD7762; first compound 0.253 µM) | relative viability (Bexarotene + AZD7762; first compound 0.8 µM) | relative viability (Bexarotene + AZD7762; first compound 2.53 µM) | relative viability (Bexarotene + AZD7762; first compound 8 µM) | relative viability (Bexarotene + Tozasertib; first compound 0.08 µM) | relative viability (Bexarotene + Tozasertib; first compound 0.253 µM) | relative viability (Bexarotene + Tozasertib; first compound 0.8 µM) | relative viability (Bexarotene + Tozasertib; first compound 2.53 µM) | relative viability (Bexarotene + Tozasertib; first compound 8 µM) | relative viability (Bexarotene + Bortezomib; first compound 0.08 µM) | relative viability (Bexarotene + Bortezomib; first compound 0.253 µM) | relative viability (Bexarotene + Bortezomib; first compound 0.8 µM) | relative viability (Bexarotene + Bortezomib; first compound 2.53 µM) | relative viability (Bexarotene + Bortezomib; first compound 8 µM) | relative viability (Bexarotene + Decitabine; first compound 0.08 µM) | relative viability (Bexarotene + Decitabine; first compound 0.253 µM) | relative viability (Bexarotene + Decitabine; first compound 0.8 µM) | relative viability (Bexarotene + Decitabine; first compound 2.53 µM) | relative viability (Bexarotene + Decitabine; first compound 8 µM)
LCLC-97TM1 | 0.252 | 0.35 | 0.398 | 0.263 | 0.237 | 0.251 | 0.192 | 0.206 | 0.189 | 0.221 | 0.58 | 0.625 | 0.468 | 0.126 | 0.575 | 0.282 | 0.224 | 0.227 | 0.189 | 0.21
HARA | 0.336 | 0.272 | 0.412 | 0.303 | 0.262 | 0.0906 | 0.0857 | 0.156 | 0.0749 | 0.0939 | 1.16 | 1.04 | 1.02 | 1.02 | 1.03 | 0.618 | 0.637 | 0.535 | 0.633 | 0.514
HCC-78 | 0.638 | 0.391 | 0.542 | 0.554 | 0.638 | 0.401 | 0.483 | 0.414 | 0.435 | 0.413 | 0.442 | 0.453 | 0.491 | 0.524 | 0.5 | 0.735 | 0.705 | 0.673 | 0.528 | 0.749
NCI-H1666 | 1.02 | 0.839 | 0.82 | 0.817 | 0.895 | 0.658 | 0.611 | 0.52 | 0.558 | 0.668 | 0.742 | 0.701 | 0.727 | 0.719 | 0.75 | 0.813 | 0.696 | 0.773 | 0.689 | 0.693
NCI-H2347 | 0.794 | 0.86 | 0.688 | 0.691 | 0.754 | 0.625 | 0.668 |  | 0.585 | 0.623 | 1.2 | 0.904 | 0.818 | 0.664 | 0.835 | 0.621 | 0.705 | 0.606 | 0.686 | 0.565
NCI-H838 | 1.03 | 1.09 | 0.989 | 0.978 | 0.938 | 0.269 | 0.301 | 0.267 | 0.278 | 0.271 | 0.995 | 1.16 | 0.803 | 0.777 | 0.949 | 0.521 | 0.423 | 0.499 | 0.515 | 0.445
NCI-H2023 |  |  |  |  |  | 0.395 | 0.385 | 0.417 | 0.328 | 0.283 | 1.08 | 1.01 | 1.07 | 0.846 | 0.786 | 0.224 | 0.218 | 0.214 | 0.197 | 0.205
201T | 0.796 | 0.612 | 0.714 | 0.591 | 0.514 | 0.926 | 0.86 | 0.891 | 0.92 | 0.808 | 1.08 | 1.1 | 1.07 | 1.08 | 1.05 | 0.828 | 0.858 | 0.746 | 0.781 | 0.692
NCI-H1915 | 0.707 | 0.724 | 0.674 | 0.653 | 0.655 | 0.465 | 0.492 | 0.425 | 0.339 | 0.376 | 1 | 0.989 | 0.896 | 0.993 | 0.911 | 0.272 | 0.259 | 0.274 | 0.255 | 0.23
NCI-H2009 |  |  |  |  |  | 0.753 | 0.897 | 0.814 | 0.815 | 0.778 | 1.16 | 1.27 | 1.13 | 1.08 | 1 | 0.404 | 0.394 | 0.373 | 0.404 | 0.364
BEN | 0.759 | 0.585 | 0.613 | 0.612 | 0.695 | 0.462 | 0.475 | 0.499 | 0.444 | 0.493 | 0.905 | 0.599 | 0.672 | 0.496 | 0.649 | 0.706 | 0.666 | 0.723 | 0.647 | 0.692
PC-14 | 0.357 | 0.436 | 0.415 | 0.299 | 0.338 | 0.626 | 0.778 | 0.649 | 0.576 | 0.66 | 0.926 | 0.885 | 0.856 | 0.825 | 0.719 | 0.288 | 0.251 | 0.251 | 0.206 | 0.209
SK-MES-1 |  |  |  |  |  | 0.907 | 0.95 | 0.784 | 0.832 | 0.573 |  |  |  |  |  | 0.43 | 0.379 | 0.423 | 0.294 | 0.3
NCI-H727 | 0.537 | 0.635 | 0.598 | 0.617 | 0.633 | 0.622 | 0.584 | 0.76 | 0.64 | 0.618 | 1.21 | 0.735 | 0.899 | 0.822 | 0.955 | 1.02 | 0.748 | 0.826 | 0.847 | 0.885
NCI-H1355 | 0.868 | 0.841 | 0.671 | 0.9 | 0.682 | 0.492 | 0.531 | 0.54 | 0.492 | 0.512 | 1.17 | 1.35 | 1.21 | 1.32 | 1.14 | 0.379 | 0.332 | 0.416 | 0.388 | 0.346
NCI-H1975 | 0.676 | 0.775 | 0.672 | 0.666 | 0.668 | 0.809 | 0.875 | 0.846 | 0.73 | 0.879 | 0.414 | 0.376 | 0.452 | 0.428 | 0.346 | 0.359 | 0.393 | 0.443 | 0.406 | 0.392
LK-2 | 0.675 | 0.516 | 0.547 | 0.433 | 0.418 | 0.175 | 0.162 | 0.185 |  | 0.165 |  |  |  |  |  | 0.387 | 0.308 | 0.321 | 0.35 | 0.279

Source: the supplement of paper PMC10307832
